Literature values in US12083109B2, “Neurokinin antagonists and uses thereof” (California Institute of Technology, priority 2017, dated 2024).
Read-outs that look alike come from different tables or passages of the source.

Target: T1, NK3R (Homo sapiens, UniProt P29371)
T1 construct: host or cells: human trial subjects
T1 sequence (P29371 1-465): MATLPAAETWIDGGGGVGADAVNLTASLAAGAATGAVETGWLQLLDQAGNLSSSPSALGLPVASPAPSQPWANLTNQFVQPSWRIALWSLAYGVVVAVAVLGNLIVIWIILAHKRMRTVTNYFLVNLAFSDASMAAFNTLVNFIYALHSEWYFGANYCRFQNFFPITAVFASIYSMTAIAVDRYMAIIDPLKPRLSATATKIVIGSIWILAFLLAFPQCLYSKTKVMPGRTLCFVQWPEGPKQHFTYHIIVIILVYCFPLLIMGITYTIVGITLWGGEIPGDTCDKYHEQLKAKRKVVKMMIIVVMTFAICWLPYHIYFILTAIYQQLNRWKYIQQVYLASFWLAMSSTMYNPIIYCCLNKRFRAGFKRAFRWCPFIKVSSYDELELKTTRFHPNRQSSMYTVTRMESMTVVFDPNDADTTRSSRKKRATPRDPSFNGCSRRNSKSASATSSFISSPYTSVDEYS
Settings: cited from earlier work; for safety and tolerability in clinical trials: human, Phase I

CCC(NC(=O)c1c(O)c(-c2ccccc2)nc2ccccc12)c1ccccc1 (stereo not drawn) [Talnetant, 3-hydroxy-2-phenyl-N-(1-phenylpropyl)quinoline-4-carboxamide]
efficacy in schizophrenia and major depressive disorder (human trials, Phase II/III): lack of efficacy
safety and tolerability in clinical trials: exhibited safety
safety and tolerability in clinical trials (listed as talnetant): safe and well-tolerated
